Biological target: T1, human GLP-1 receptor (Homo sapiens, UniProt P43220)
T1 construct: expressed in transfected cells; host or cells: BHK467-12A (tk-ts13), baby hamster kidney; purified plasma membranes
Assay: In vitro potency (CRE luciferase; whole cells)
Format: cell-based
Method: The purpose of this example is to test the activity, or potency, of the GLP-1 derivatives in vitro. The in vitro potency is the measure of human GLP-1 receptor activation in a whole cell assay.
In vitro potency was determined by measuring the response of human GLP-1 receptor in a reporter gene assay. The assay was performed in a stably transfected BHK cell line that expresses the human GLP-1 receptor and contains the DNA for the cAMP response element (CRE) coupled to a promoter and the gene for firefly luciferase (CRE luciferase). When the human GLP-1 receptor was activated it results in the production of cAMP, which in turn results in the luciferase protein being expressed. When assay incubation was completed the luciferase substrate (luciferin) was added and the enzyme converts luciferin to oxyluciferin and produces bioluminescence. The luminescence was measured and was the readout for the assay.
The cells were cultured at 5% CO2 in cell culture medium. They were aliquoted and stored in liquid nitrogen. Before each assay an aliquot was taken up and washed twice in PBS before being suspended at the desired concentration in the assay specific buffer.
• 1) Cell stocks were thawed in a 37° C. water bath. • 2) Cells were washed three times in PBS. • 3) The cells were counted and adjusted to 5×10^3 cells/50 μl (1×10^5 cells/ml) in assay medium. […]

T1 sequence (P43220 24-463): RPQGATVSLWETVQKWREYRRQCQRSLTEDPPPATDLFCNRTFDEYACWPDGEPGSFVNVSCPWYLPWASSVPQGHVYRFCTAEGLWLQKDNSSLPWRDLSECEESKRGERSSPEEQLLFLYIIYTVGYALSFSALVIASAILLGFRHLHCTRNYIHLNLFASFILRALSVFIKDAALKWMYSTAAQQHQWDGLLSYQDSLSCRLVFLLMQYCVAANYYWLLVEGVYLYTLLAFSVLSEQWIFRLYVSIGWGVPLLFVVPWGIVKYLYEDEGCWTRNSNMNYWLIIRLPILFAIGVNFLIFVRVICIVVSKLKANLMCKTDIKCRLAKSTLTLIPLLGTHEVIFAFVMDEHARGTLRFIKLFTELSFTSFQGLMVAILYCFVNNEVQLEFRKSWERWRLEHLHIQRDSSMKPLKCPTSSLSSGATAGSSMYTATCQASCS

`CC[C@H](C)[C@H](NC(=O)[C@H](Cc1ccccc1)NC(=O)[C@H](CCC(=O)O)NC(=O)[C@H](CCCCNC(=O)[C@@H](N)CCCCNC(=O)[C@H](CO)NC(=O)CNC(=O)[C@H](CO)NC(=O)CC[C@H](NC(=O)CCCCCCCCCCCOc1ccc(C(=O)O)cc1)C(=O)O)NC(=O)[C@H](C)NC(=O)[C@H](C)NC(=O)[C@H](CCC(N)=O)NC(=O)CNC(=O)[C@H](CCC(=O)O)NC(=O)[C@H](CC(C)C)NC(=O)[C@H](Cc1ccc(O)cc1)NC(=O)[C@H](CO)NC(=O)[C@H](CO)NC(=O)[C@@H](NC(=O)[C@H](CC(=O)O)NC(=O)[C@H](CO)NC(=O)[C@@H](NC(=O)[C@H](Cc1ccccc1)NC(=O)[C@@H](NC(=O)CNC(=O)[C@H](CCC(=O)O)NC(=O)C(C)(C)NC(=O)[C@@H](N)Cc1c[nH]cn1)[C@@H](C)O)[C@@H](C)O)C(C)C)C(=O)N[C@@H](C)C(=O)N[C@@H](Cc1c[nH]c2ccccc12)C(=O)N[C@@H](CC(C)C)C(=O)N[C@H](C(=O)N[C@@H](CCCNC(=N)N)C(=O)NCC(=O)N[C@@H](CCCNC(=N)N)C(=O)N[C@@H](CCCCNC(=O)[C@@H](N)CCCCNC(=O)[C@H](CO)NC(=O)CNC(=O)[C@H](CO)NC(=O)CC[C@H](NC(=O)CCCCCCCCCCCOc1ccc(C(=O)O)cc1)C(=O)O)C(=O)O)C(C)C` [Example 29] was tested, and the EC50 was 5 pM.

Reference: US10308700B2, “GLP-1 derivatives” (Novo Nordisk A/S, priority 2011, dated 2019)
